As usually defined, the ED50 is the midpoint of the dose-response relation.

The values below come from patent US10428030B2, “Heterocycle derivatives and their use for the treatment of CNS disorders” (Trillium Therapeutics Inc., priority 2015, dated 2019).

In one experiment the test system is Male Sprague-Dawley rats. Kind of experiment: Maximal Electroshock Seizure (MES) rat model. The format is in vivo. To be noted: po, 4 hours. The procedure:
Male, Sprague-Dawley rats and CD-1 mice were used for all studies. All animals were allowed ad-lib access to food and water except during experiment. Animals were housed within an animal vivarium maintained under a 12 h light:dark cycle (lights on: 07:00 h), and all experiments were conducted in the animals light phase. For all experiments, animals were habituated to the vivarium for a minimum of 72 h before experimentation. The experimental procedures used in the present investigation were conducted under the Association for Assessment and Accreditation of Laboratory Animal Care (AAALAC) and the Canadian Council on Animal Care (CCAC) guidelines.
All compounds were sonicated in 5% Tween 80® in saline or methylcellulose 0.5% (wgt/vol), using MC and sterile water and injected in a dose volume of 5 ml/kg or 10 ml/kg (rat), and 10 ml/kg (mouse). Drugs were administered by either the oral, intraperitoneal or intravenous route.
Male Sprague-Dawley rats of body weight 80-100 g were used for these studies. Each experiment was conducted over 3 consecutive days. On day 1 and 2, each rat received a single electrical stimulus (150 mA, 0.2 s duration, 60 Hz) via corneal electrodes moistened with saline (Shock stimulator type 221: Harvard apparatus). […] Typically this reflected approximately 70-90% of the initial group.
On the test day following a defined drug pretreatment period, rats received a maximal electroshock (150 mA, 0.2 s duration, 60 Hz) via corneal electrodes. Protection was defined as absence of a full tonic seizure within 10 s of stimulus delivery. Twenty minutes before the MES procedure, the animals were tested on a fixed speed rotorod (best score from 3 trials at 8 r.p.m, trial duration=60 s) to give an early assessment of drug effect on gross motor function.

In another experiment the test system is amygdala kindled rat. The experiment in a line: Amygdala kindled rat model (focal seizures). To be noted: <100 mg/kg i.p., vs vehicle controls. The format is in vivo. An excerpt:
Amygdala kindling model is an animal model for complex partial seizures, which is the most common type of epilepsy in adults and is often drug resistant. Exemplary compounds of the application were effective in this model.

For the next experiment, the system named is corneal kindled mice. Kind of experiment: Corneal kindling mouse model (focal seizures). The experiment is classed as in vivo. From the text: Mice are kindled electrically with 3 sec stimulation, 8 mA, 60 Hz, and coneal electrodes to a criterion of 10 consecutive Stage 5 seizures (facial clonus and head nodding progressing to forelimb clonus, and finally rearing and falling accompanied by a generalized clonic seizure as described by Racine (Racine R J. Neurophysiol., 1972. 32: p. 281-294) Stage 5 is generally reached after twice daily stimulation for 8 days. With continued stimulation once a day, animals usually progress to a reproducible Stage 5 after 10-14 additional days. At least 72 hours after the mice have been kindled, the test substance is administered either i.p. or p.o. and, at the previously determined TPE, each animal is given the electrical stimulus indicated above. Following stimulation, the animals are observed for the presence or absence of the rearing and falling criteria of a Stage 5 seizure. Treated animals not displaying a Stage 3, 4, or 5 seizure are considered protected. The dose of the test substance is varied between the limits of 0 and 100% efficacy, and the ED50 and 95% confidence intervals calculated by probit analysis. Mean values and the S.E.M. are calculated for the length of clonus and seizure duration and p values are determined by the Student's t-test.

Experiment [1] relates to Male, Sprague-Dawley rats. Kind of experiment: Spinal Nerve Injury (SNI) model (neuropathic pain). To be noted: 60 mg/kg i.p. The format is in vivo, rat. From the text: The SNI model of neuropathic pain was developed in rats using the procedure described by Decostered and Woolf, Pain 2000, 87: 149-158. Under isoflurane anesthesia, the skin on the lateral surface of the thigh was incised and a section was made directly through the biceps femoris muscle exposing the sciatic nerve and its three terminal branches: the sural, common peroneal and tibial nerves. The common peroneal and the tibial nerves were tight-ligated with 6-0 suture and sectioned distal to the ligation, removing 2-4 mm of the distal nerve stump. Extreme care was taken to avoid any contact with or stretching of the intact sural nerve. Following surgery, hemostasis was confirmed and the muscles were sutured in layers using 4-0 suture and the skin was closed with 4-0 suture and metal clips.
Male, Sprague-Dawley rats were used. Testing of compounds was done 21 days post-operatively. After initial basal readings were taken, the test compound or vehicle was administered. The readings were taken again 30, 60 and 180 min after the compound/vehicle administration. Both the control (uninjured) and the SNI paw were tested. The presence of mechanical allodynia was assessed using the Dynamic Plantar Aesthesiometer (Ugo Basile, Italy) which is a modified version of the Von Frey Hair test. […] A single reading was taken per timepoint. […]
Cold allodynia was assessed by using the acetone test. […]

As to `O=C1COc2cc(OCc3ccc(OC(F)F)cc3)ccc2N1` [Compound I(B)], the ED50 in the experiment with Male Sprague-Dawley rats was 20.1 ± 0.7 mg/kg; in the experiment with corneal kindled mice (Mus musculus, corneal kindled mice, read-out: ED50, suppression of fully kindled (stage 5) seizures) it was 119 ± 1.81 mg/kg. The “suppression of fully kindled (stage 5) seizures” value with amygdala kindled rat is listed as “dose related suppression of fully kindled (stage 5) seizures”. Moreover, the “Average Seizure” value was 5 in the experiment on corneal kindled mice (dose 35 mg/kg), 4.6 in the experiment with corneal kindled mice (dose 70 mg/kg), 2.4 in the experiment with corneal kindled mice (dose 140 mg/kg) and 0.8 in the experiment on corneal kindled mice (dose 300 mg/kg). Moreover, the “N/F (number of animals active over the number tested)” value in the experiment with corneal kindled mice (dose 35 mg/kg) is listed as 0/8; in the experiment on corneal kindled mice (dose 70 mg/kg), 1/8; in the experiment on corneal kindled mice (dose 140 mg/kg), 5/8; with corneal kindled mice (dose 300 mg/kg), 8/8. The “effect on fully kindled (stage 5) seizures” value with corneal kindled mice (vs vehicle controls) is “dose related suppression of fully kindled (stage 5) seizures”. Also, in experiment [1], the “mechanical allodynia in the denervated paw (Von Frey test)” value is given as “effective at reducing the mechanical allodynia”. In experiment [1] (neuropathic rats), the cold allodynia entry is reported as “significantly reduced”.
